Results taken from patent US10301304B2, “Selective inhibitor of phosphatidylinositol 3-kinase-gamma” (VERTEX PHARMACEUTICALS INCORPORATED, priority 2013, dated 2019).
Read-outs that look alike come from different tables or passages of the source.

Tests used:
[1] = test system: buffy coat neutrophils and monocytes (PI3K-gamma); experiment: Isolated Leukocyte oxidative burst; assay type: cell-based; conditions: absence of serum, read-out: IC50 Average ± Standard Deviation
Source text: Neutrophils, monocytes and macrophages are key mediators of innate immunity. They release reactive oxygen species (ROS) as part of the innate immune inflammatory response. ROS production is induced by inflammatory mediators like chemokines, bacterial peptides and complement that recruit the innate immune cells to the site of inflammation. These inflammatory mediators trigger activation of PI3K-gamma and initiate a downstream signaling cascade that leads to the assembly of the complete NADPH oxidase complex at the plasma membrane generating ROS. PI3K-gamma functional activity was measured in whole blood and huffy coat neutrophils and monocytes via the generation of ROS. The cells are stimulated with TNF-alpha for 10 minutes, then with bacterial cell wall-derived chemotactic peptide, fMLP, for 20 minutes, and loaded with a non-fluorescent dye […] (DHR). ROS produced by the cells oxidizes DHR to fluorescent rhodamine causing an increase in fluorescent rhodamine content in the cells. PI3K-gamma functional activity is measured by the ability of neutrophils and monocytes to generate ROS following fMLP stimulation. Leukocytes and whole blood samples were analyzed on a BD FACSCalibur™ to quantitate cells positive for fluorescent rhodamine. Buffy coat cells generate IC50S in the absence of serum and whole blood assay generates IC50S in the presence of serum.

[2] = test system: CSF-1 stimulated pAkt in THP-1 cells (PI3Kα/β/δ); experiment: CSF-1 Stimulated pAkt in THP-1 Cells; assay type: cell-based; conditions: Homo sapiens; THP-1/CSF-1/pAkt, PI3K-alpha/beta/delta dependent; read-out: IC50 Avg +/− SD
Description: Growth factors, cytokines and other ligands of receptor tyrosine kinases, like CSF1, bind to their receptors leading to activation of the class IA PI3K signaling pathway. PI3K activation leads to generation of PIP3 and activation of downstream molecules like PDK-1 and Akt. Akt phosphorylation is a measure of PI3K activity in the cell. THP-1 cells (a human monocytic cell line) are starved overnight to deplete pAkt levels. Stimulation with CSF-1 for 5 minutes leads to PI3Kα/β/δ induced phoshorylation of Akt at the Threonine 308 and Serine 473 sites. Cells were fixed and stained for intracellular phosphoAkt (Ser 473) then analyzed on the BD FACSCalibur™ cytometer. This is a measure of cellular Class IA PI3K inhibition.

[3] = test system: Purified human B cells; experiment: Human B Cell Proliferation Assay; assay type: cell-based
Source text: B cells are highly dependent on PI3Kδ for their development and activity. […] has an essential and non-redundant role in signaling via the B cell receptor (BCR) complex. Both IgM induced Ca+ influx and proliferation are attenuated in mice lacking PI3K-δ or with PI3K-δ inhibitors. PI3K-gamma has no role to play in any B cell activity. The specificity of the BCR complex for the […] to evaluate the extent of […] inhibition in cells. Purified human B cells are stimulated with anti-IgM in the presence of test compounds. Four days later cell viability/proliferation was measured using cell titer-glo to measure the ATP content of the cells in the well. Lack of or reduced proliferation is a measure of the extent of […].

[4] = test system: HUVECs; experiment: HUVEC Proliferation Assay; assay type: cell-based, human; conditions: for IC50: Homo sapiens, HUVEC
Description: PI3Ks are important signaling molecules downstream of a number of growth factors that regulate cell survival, growth and cell cycle entry. Both PI3K-alpha and PI3K-beta isoforms regulate cell cycle entry; inhibition of either isoform leads to reduced cell growth. HUVECs are primary human umbilical vein endothelial cells which express both the PI3Kα and PI3Kβ isoforms. Inhibition of either or both PI3K-alpha or PI3K-beta isoforms will inhibit the cell growth of HUVECs. Compounds are plated onto HUVECs, cell proliferation/viability is measure 96 hours post compound treatment using cell titer-glo to measure the ATP content of the cells in the well. Lack of or reduced proliferation is a measure of the extent of PI3K-alpha and/or PI3K-beta inhibition.

[5] = molecular target: T1, P-gp (MDR1) (Homo sapiens, UniProt P08183); experiment: Efflux in MDCK-MDR1 cell line; assay type: in vitro ADME; conditions: human; for recovery at 1 h, 1 μM: MDCK-MDR1, MDCK-MDR1, 1 μM
T1 construct: expressed in transfected cells; host or cells: MDCK (Madin-Darby canine kidney) cells, MDCK-MDR1
T1 sequence (P08183 whole entry): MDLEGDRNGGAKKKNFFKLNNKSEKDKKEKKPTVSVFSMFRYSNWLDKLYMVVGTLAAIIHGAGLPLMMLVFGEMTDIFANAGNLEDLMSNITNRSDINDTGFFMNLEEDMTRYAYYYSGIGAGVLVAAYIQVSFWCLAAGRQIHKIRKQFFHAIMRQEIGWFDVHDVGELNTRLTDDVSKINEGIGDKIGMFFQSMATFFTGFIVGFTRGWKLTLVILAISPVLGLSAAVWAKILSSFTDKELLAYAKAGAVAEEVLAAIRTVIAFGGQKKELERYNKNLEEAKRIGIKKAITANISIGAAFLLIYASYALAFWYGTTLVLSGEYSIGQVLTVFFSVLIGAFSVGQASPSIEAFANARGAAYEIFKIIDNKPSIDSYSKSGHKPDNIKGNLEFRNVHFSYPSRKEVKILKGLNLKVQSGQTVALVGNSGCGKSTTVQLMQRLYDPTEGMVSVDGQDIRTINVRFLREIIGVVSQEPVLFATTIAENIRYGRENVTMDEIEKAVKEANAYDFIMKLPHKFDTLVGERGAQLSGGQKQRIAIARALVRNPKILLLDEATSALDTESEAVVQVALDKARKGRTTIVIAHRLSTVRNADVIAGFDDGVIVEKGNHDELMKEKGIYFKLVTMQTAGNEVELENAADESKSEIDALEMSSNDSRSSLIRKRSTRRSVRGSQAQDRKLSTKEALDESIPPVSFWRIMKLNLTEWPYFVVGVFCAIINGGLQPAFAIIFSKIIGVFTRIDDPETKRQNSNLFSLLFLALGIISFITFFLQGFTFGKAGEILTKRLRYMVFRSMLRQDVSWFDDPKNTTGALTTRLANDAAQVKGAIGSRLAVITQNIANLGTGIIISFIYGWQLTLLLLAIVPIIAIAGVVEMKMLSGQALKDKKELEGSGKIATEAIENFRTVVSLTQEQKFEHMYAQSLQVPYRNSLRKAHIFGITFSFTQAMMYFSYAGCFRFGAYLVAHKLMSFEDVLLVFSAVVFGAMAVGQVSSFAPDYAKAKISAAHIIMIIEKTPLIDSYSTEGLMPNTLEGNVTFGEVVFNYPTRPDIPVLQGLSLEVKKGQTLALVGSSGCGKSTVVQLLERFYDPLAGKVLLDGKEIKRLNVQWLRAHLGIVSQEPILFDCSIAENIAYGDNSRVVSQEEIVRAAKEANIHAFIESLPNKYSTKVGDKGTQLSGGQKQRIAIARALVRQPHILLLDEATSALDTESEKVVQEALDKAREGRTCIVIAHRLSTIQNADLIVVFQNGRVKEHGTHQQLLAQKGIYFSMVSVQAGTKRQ
Description: (§1) The permeability of Compound 1 was evaluated using both Caco-2 and MadinDarby canine kidney (MDCK) wild-type cell lines. Cells were exposed to drug in buffer on the apical side (measuring permeability in the A-to-B direction) or basolateral side (measuring permeability in the B-to-A direction) and incubated at 37° C. for one hour. Permeability was high in the A-to-B direction in both the MDCK and Caco-2 cell lines (33 and 18×10^−6 cm/sec, respectively).
(§2) An assessment of whether Compound 1 is a substrate of efflux transporters was conducted by using the MDCK cell line that is overexpressed with human P-gp (MDR).

[6] = molecular target: T2, human P-gp (MDR) (Homo sapiens, UniProt P08183); experiment: Efflux in MDCK-MDR1 cell line; assay type: in vitro ADME; conditions: MDCK overexpressing human P-gp, in words
T2 construct: expressed in transfected cells; host or cells: MDCK (Madin-Darby canine kidney) cells, MDCK-MDR1
T2 sequence (P08183 whole entry): as above
Description: as §1, §2

[7] = Oral pharmacokinetics / bioavailability; assay type: in vivo, Rat
Source text: The bioavailability in monkey (greater than 100%) may be explained by the tenfold difference between the IV and oral doses. Compound 1 was rapidly absorbed in all species, with maximum systemic concentration observed within approximately one to three hours of dosing.

[8] = molecular target: CYP3A4 (Homo sapiens, UniProt P08684); experiment: Time-dependent inhibition of CYP3A4, IC50 shift assay; assay type: in vitro ADME; set-up: evaluated in human liver microsomes using the IC50 shift assay; from tissue; host or cells: human liver microsomes; conditions: CYP3A4, preincubation 0 and 30 minutes with/without NADPH, human liver microsomes
Chain of CYP3A4 (P08684 whole entry): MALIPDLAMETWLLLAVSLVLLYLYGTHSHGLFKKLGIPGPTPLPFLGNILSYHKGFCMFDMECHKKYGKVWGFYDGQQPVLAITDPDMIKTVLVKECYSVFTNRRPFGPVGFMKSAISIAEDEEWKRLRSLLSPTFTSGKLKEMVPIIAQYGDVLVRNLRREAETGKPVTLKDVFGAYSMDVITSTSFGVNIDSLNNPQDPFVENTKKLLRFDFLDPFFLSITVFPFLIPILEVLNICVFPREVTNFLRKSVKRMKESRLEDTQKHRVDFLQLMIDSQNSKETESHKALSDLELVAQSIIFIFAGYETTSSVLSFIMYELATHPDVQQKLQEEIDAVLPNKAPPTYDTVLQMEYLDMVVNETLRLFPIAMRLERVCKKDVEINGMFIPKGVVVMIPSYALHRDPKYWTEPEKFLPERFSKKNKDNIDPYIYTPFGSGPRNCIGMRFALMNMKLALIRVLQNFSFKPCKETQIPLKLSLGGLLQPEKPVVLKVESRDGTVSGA
Description: Time-dependent inhibition of CYP3A4 by Compound 1 also was evaluated in human liver microsomes using the IC50 shift assay. In the study, Compound 1 at 0.1 to 50 μM was preincubated with human liver microsomes in the presence and absence of NADPH for 0 and 30 minutes. Incubations were then diluted 10-fold with buffer and the remaining CYP3A4 (testosterone-6-beta-hydroxylase) activity was measured over a 10 minute period. There was no significant change (IC50 shift=1) in the IC50 of Compound 1 in the presence or absence of NADPH.

[9] = in vivo, Rat, single oral, 1 mg/kg nominal, spray-dried dispersion

In the case of `Cc1cc(-c2cncc([C@@H](O)C(F)(F)F)c2)nc2c1C(=O)N(c1cnn(CC(F)F)c1)C2(C)C` [Compound 1, (R)-6-(1-(2,2-difluoroethyl)-1H-pyrazol-4-yl)-4,7,7-trimethyl-2-(5-(2,2,2-trifluoro-1-hydroxyethyl)pyridin-3-yl)-6,7-dihydro-5H-pyrrolo[3,4-b]pyridin-5-one], the IC50 [1] is reported as 0.22 µM, the IC50 [2] is reported as greater than 9.7 µM and the “selectivity window over PI3K-δ” value ([3]; B cell proliferation) is reported as 11 fold. The IC50 ([3]; Homo sapiens, 96 h, B cell/IgM/Proliferation, four days, read-out: IC50 Avg +/− SD) was 3.05 ± 0.44 µM, the “selectivity over PI3K-delta in cell based assays” value ([3]; summary) was 12 fold and the “selectivity over PI3K-alpha/beta” value ([4]; HUVEC proliferation) was greater than 74 fold. The IC50 ([4]; 96 h, HUVEC Proliferation, 96 hours, PI3K-alpha/beta dependent, read-out: IC50 Avg +/− SD) was greater than 19 µM, the IC50 ([4]; footnote * of Table 4, no anchor in the table, read-out: Individual assay data (IC50)) was greater than 20 µM and the “selectivity over PI3K-alpha and PI3K-beta in cell based assays” value ([4]; summary) was 40-80 fold. It also gave a recovery at 1 h, 1 μM ([5]; A > B) of 97%, a recovery at 1 h, 1 μM ([5]; B > A) of 87% and an efflux ratio at 1 h, 1 μM ([5]; MDCK-MDR1, 1 μM) of 35.1. For the same compound, the Papp A→B at 1 h, 1 μM ([5]; MDCK-MDR1, 1 μM, A > B) was 0.98 ×10⁻⁶ cm/s, the Papp B→A at 1 h, 1 μM ([5]; MDCK-MDR1, 1 μM, B > A) was 34.3 ×10⁻⁶ cm/s and the “substrate of efflux transporters” value [6] was “P-gp substrate”. It also gave a DN_AUCINF ([7]; Rat, single oral, 1 mg/kg nominal, spray-dried dispersion) of 5140 ng·h/mL, an F ([7]; Rat, single oral, 1 mg/kg nominal, spray-dried dispersion, 1 mg/kg) of 84% and an AUC(0-inf) [7, 9] of 5110 ng·h/mL. The MRT [7, 9] was 18.3 h, the Tmax [7, 9] was 3.33 h and the half-life [7, 9] was 12.5 h. For the same compound, the AUC ([7]; in vivo, Rat, single oral, 1 mg/kg nominal, spray-dried dispersion, read-out: AUCALL) was 5000 ng·h/mL, the Cmax ([7]; in vivo, Rat, single oral, 1 mg/kg nominal, spray-dried dispersion, read-out: Cmax) was 260 ng/mL and the AUC ([7]; rat, in vivo, Oral gavage, 3 mg/kg nominal dose, vehicle 0.2%MC/1%SLS, read-out: Rat PO AUC) was 18000 ng·h/mL. The Cmax ([7]; rat, in vivo, Oral gavage, 3 mg/kg nominal dose, vehicle 0.2%MC/1%SLS, read-out: Rat PO Cmax) was 1000 ng/mL and the IC50 shift [8] was 1.
